From publication PMC11201061, “Mechanistic Study of Antimicrobial Effectiveness of Cyclic Amphipathic Peptide [R4W4] against Methicillin-Resistant Staphylococcus aureus Clinical Isolates” (Antibiotics, 2024) come the findings set out here.

≈ marks a conversion by molar mass, not a printed value. Structures can show the parent of a compound that is named as a salt. Where two headings read alike, the source gives them in different places. Where a SMILES comes first, the peptide text is derived from it. Bounds are passed on as bounds.

The test system of one data set is B. subtilis 21332. As to the kind of experiment: microbe, parasite or virus in culture. Type of data set: cell-based, Bacillus subtilis. Conditions: for MBC/MIC: B. subtilis ATCC 21332. On the procedure: To determine whether the antibacterial activity of [R4W4] is bacteriostatic or bactericidal against clinical isolates of multidrug-resistant bacterial isolates, MIC and MBC were determined using the microbroth dilution method. Bacteriostatic activity was defined as a ratio of the MBC/MIC greater than four and bactericidal activity as MBC/MIC ratio ≤ 4 [33]. We added aliquots of test samples (256 μg/mL concentration of [R4W4] or vancomycin as a control prepared in TSB) to the first well of microplates. MHB media was added to the remaining wells. Two-fold serial dilutions were performed, starting with the highest drug concentration in well 1, and the dilution process continued. A bacterial aliquot of 1/150 dilution was prepared with a 0.5 McFarland standard solution from an overnight culture of the tested bacteria isolate. Bacteria were added to the microplate and placed into wells with the drug dilutions. The microplates were incubated overnight for 24 h at 37 °C. [R4W4] was synthesized and purified, as reported earlier.

The nature of another data set: in vitro. Conditions: human, 25% human serum.
Data set [1] deals with MRSA LAC. As to the kind of experiment: Thermal stability by MIC after heat exposure. It counts as cell-based, Staphylococcus aureus. The settings on record: [R4W4] stock exposed to 25, 50, 75 and 100 °C (10 min), then microbroth dilution. On the procedure: As per temperature sensitivity, the [R4W4] stock solution (1.15 mg/mL) in a 2 mL Eppendorf microtube was exposed to 100 °C for 10 min. After the thermal exposure, the [R4W4] antibacterial effectiveness was evaluated against MRSA using a microbroth dilution assay, as explained above.

Data set [2] deals with MRSA USA300. As to the kind of experiment: Membrane depolarization assay with DisC3(5). Type of data set: cell-based, Staphylococcus aureus. On the procedure: Buffer A (5 mM HEPE and 5 mM glucose) and Buffer B (5 mM HEPE, 5 mM glucose, and 0.2 mM EDTA) solutions were prepared and filtered using 0.2 μm filters. Bacteria strains (MRSA and E. coli) from a −80 °C freezer were inoculated on an agar plate overnight. Two to three colonies of each bacteria strain were inoculated in 8 mL Cation-Adjusted Muller-Hinton Broth (CAMHB) and allowed to grow overnight. The overnight grown MRSA or E. coli bacteria was diluted with a fresh CAMHB (1:100) and incubated at 37 °C for 5 h with shaking at 220 rpm. The resulting bacteria cells at the growth phase were centrifuged at 3700× g at 4 °C for 10 min. The bacteria pellets were washed three times with buffer A and then resuspended in buffer A to an OD600nm of 0.05.
On the other hand, E. coli was resuspended in buffer B to an OD600nm of 0.05 to facilitate fluorescence dye DSC5 uptake. Then, 20 mL of each bacteria suspension was mixed with 10 μL of 100 μM dye in a dark place for 45 min. After incubation, potassium chloride was added to the two bacteria suspensions to a final concentration. […] The fluorescence intensity was measured at excitation and emission wavelengths of 622 nm and 670 nm, respectively.

Data set [3] has as its system MRSA LAC. Conditions: for % Reduction in viable bacteria / Lethal rate (LR), log10 reduction: MRSA LAC in MHB; for viable bacteria at 26 h: MRSA LAC; for % reduction in viable bacteria over 1 × MIC, 2 × MIC and 4 × MIC: MRSA in MHB, range over the three concentrations. On the procedure: The MRSA Los Angeles County (LAC) USA300 strain was cultured from −80 °C freezer stock and inoculated on an agar plate overnight. Two bacteria colonies were inoculated in MH broth overnight at 37 °C with shaking at 200 rpm. An aliquot was added to normal saline to achieve a 0.5 McFarland Standard suspension and then diluted 1:150 with MHB. The bacteria sample was plated on an agar plate at time zero. The test samples were prepared by adding [R4W4] or vancomycin to bacteria to achieve the final sample concentration of (1 × MIC, 2 × MIC, 4 × MIC) using media without antibacterial agents as positive control.
[…] The samples were diluted to minimize excessive CFU counts. The inoculated plates were incubated at 37 °C overnight. The surviving organisms were determined by counting colonies as CFU/plate. The average duplicate counts were multiplied by the dilution factors to arrive at CFU/mL. The microbial reduction was calculated by converting the count to log10 scale. The Log CFU/mL was plotted against time for different antibacterial concentrations.

Data set [4] concerns MRSA LAC. Description: microbe, parasite or virus in culture. The settings on record: for MIC: Staphylococcus aureus, MRSA. It counts as cell-based, Staphylococcus aureus. On the procedure: The effects of cations on the antimicrobial activity of [R4W4] were determined against MRSA using vancomycin as a control. The bacteria aliquots were treated with MHB media containing the final concentration of sodium chloride (NaCl) (150, 75, 37.5, and 18.75 mM), calcium chloride (CaCl2) (8, 4, 2, and 1 mM), and ferric chloride (FeCl3) (1, 4, and 8 µM) in 96 well microplates. The MIC of [R4W4] and vancomycin were determined to determine whether there were changes in the MIC values when treated with different salt concentrations.

Data set [5] deals with MRSA USA300. Description: microbe, parasite or virus in culture. Conditions: for MIC: Staphylococcus aureus. On the procedure:
The interaction of [R4W4], melittin, and vancomycin with LTA in the presence of MRSA was determined using a microbroth dilution assay. Two-fold serial dilution was used to achieve a 100 μL final concentration of the antibacterial agents in a 96 microplate well. A 360 μL S. aureus LTA (Sigma Aldrich stock 5 mg/mL) was added to 17.64 mL MHB containing MRSA (5 x 10^5 CFU/mL) to achieve the final concentration of S. aureus LTA 100 μg/mL. Then, 100 μL aliquots of MHB (MRSA (5 × 10^5 CFU/mL) and 100 μg/mL S. aureus LTA) were added to the 96 microtiter wells containing the antibacterial agents. The microplate was incubated overnight at 37 °C to obtain the MICs. Controls were bacteria grown in the presence of LTA alone and in MHB alone.

Experimental for in vitro: Fresh human serum (4 mL) was centrifuged at 12,500× g for 15 min at 4 °C to remove the lipids. A 25% human serum sample was prepared by adding 375 µL of the human serum supernatant to 1125 µL of RPMI buffer. […] The test sample was incubated in a water bath at 37 °C until a predetermined time interval (0, 1, 2, 4, 6, 8.5, 12, and 20 h). At the time intervals, a 150 µL aliquot test sample was added to a 300 µL cocktail solution [ethanol/formic acid (98:2 v/v) mixture] to cease the reaction. The test samples of aliquots were stored on dry ice for 20 min and then centrifuged at 17,200× g for 20 min. For LC-MS analysis, 150 µL supernatant aliquot test samples were stored at −20 °C [54].
A 20 μL aliquot of each sample was analyzed using an Xterra MS C18 column (3.9 × 150 mm, 5 μm, Waters, MA, USA), Nexera XR, and Prominence Shimadzu LC-20AD XR systems (Shimadzu Corporation, Kyoto, Japan) coupled with Shimadzu LC-MS-2020 mass spectrometer (Shimadzu, OR, USA). A two-component LC system consisted of mobile phase A (0.1% formic acid and 10% acetonitrile in water) and mobile phase B (0.1% formic acid and 100% acetonitrile). The flow rate was set at 1.0 mL/min. The Xterra MS C18 column at 40 °C was allowed to equilibrate with 95% mobile phase A. Peptides were loaded to the column and washed for 5 min with 95% mobile Phase A. Analytes were separated using a binary gradient of 0–95% mobile Phase B for 25 min. […] MS was conducted in multiple reaction monitoring and positive electrospray ionization mode. Fourteen concentrations of [R4W4] prepared by two-fold dilution of 200 μg/mL to 0.39 μg/mL were used to prepare calibration curves. The calibration curves were plotted using weighted (1/×2) least-squares linear regression analysis of peptide mass spectra area under the curve (AUC) versus concentration.

In the data set on B. subtilis 21332 (21332, 24 h), `N=C(N)NCCC[C@@H]1NC(=O)[C@H](CCCNC(=N)N)NC(=O)[C@H](CCCNC(=N)N)NC(=O)[C@H](Cc2c[nH]c3ccccc23)NC(=O)[C@H](Cc2c[nH]c3ccccc23)NC(=O)[C@H](Cc2c[nH]c3ccccc23)NC(=O)[C@H](Cc2c[nH]c3ccccc23)NC(=O)[C@H](CCCNC(=N)N)NC1=O` [[R4W4]] (cyclo(RRRRWWWW)) yielded an MBC of 8 µg/mL (≈ 5.84 µM) and an MIC of 4 µg/mL (≈ 2.92 µM). In the data set on B. subtilis 21332, this compound displayed an MBC/MIC of 2. In addition, in “in vitro”, the half-life at 100 µg/mL was above 20 h; the share remaining at 1 h, 100 µg/mL was around 99%; the share remaining at 2 h, 100 µg/mL is 93%; the amount remaining at 6 h, 100 µg/mL worked out at 80%. In addition, in the data set “in vitro”, the fraction remaining at 12 h, 100 µg/mL was found to be 77% and the amount remaining at 20 h, 100 µg/mL came to 76%. For the same compound, the “MIC after thermal exposure” value in the data set with MRSA LAC [1] stood at 4 µg/mL (≈ 2.92 µM). In addition, the “DisC3(5) fluorescence (membrane depolarization)” value with MRSA USA300 [2] ([R4W4] at 2 × MIC) was “fluorescence decreases below that of vancomycin and control”. Also, the “DisC3(5) fluorescence (membrane depolarization)” value in the data set with MRSA USA300 [2] ([R4W4] at 16 × MIC) is recorded as “enhanced fluorescence signal that surpassed that of nisin”. Further, the “% Reduction in viable bacteria” value in the data set on MRSA LAC [3] (1 × MIC, 100 × (1 − 10^−LR)) is reported as 99.67%. Further, in the data set with MRSA LAC [3] (2 × MIC), the “% Reduction in viable bacteria” value is given as 99.78% and the “Lethal rate (LR), log10 reduction” value is 2.65. For the same compound, in the data set with MRSA LAC [3] (4 × MIC), the “% Reduction in viable bacteria” value is on record as 99.87%; the “Lethal rate (LR), log10 reduction” value came out at 2.89; the “viable bacteria at 26 h” value is “bacteria remaining viable up to 26 h”. Also, in the data set with MRSA LAC [3], the “% reduction in viable bacteria over 1 × MIC, 2 × MIC and 4 × MIC” value is reported as 99.67–99.87%. For the same compound, the “MIC in the presence of sodium chloride” value in the data set with MRSA LAC [4] (LAC) lay within 6 to 8 µg/mL. For the same compound, the “MIC under normal physiological conditions” value in the data set with MRSA LAC [4] (MRSA LAC, MHB without added salt) was found to be 4 µg/mL. For the same compound, in the data set on MRSA LAC [4] (MRSA LAC, FeCl3 1, 2, 4 and 8 μM), the “MIC in the presence of ferric chloride” value is listed as “increases proportionally with the concentration of ferric chloride”. Moreover, the “MIC in the presence of LTA” value in the data set on MRSA USA300 [5] (MRSA USA300, 100 μg/mL S. aureus LTA in MHB, overnight 37 °C, duplicate) turned out to be 8 µg/mL. Also, the “MIC in the absence of LTA” value in the data set on MRSA USA300 [5] (MRSA USA300, MHB, overnight 37 °C, duplicate) was determined as 8 µg/mL.

Consider `CN[C@H](CC(C)C)C(=O)N[C@H]1C(=O)N[C@@H](CC(N)=O)C(=O)N[C@H]2C(=O)N[C@H]3C(=O)N[C@H](C(=O)N[C@H](C(=O)O)c4cc(O)cc(O)c4-c4cc3ccc4O)[C@H](O)c3ccc(c(Cl)c3)Oc3cc2cc(c3O[C@@H]2O[C@H](CO)[C@@H](O)[C@H](O)[C@H]2O[C@H]2C[C@](C)(N)[C@H](O)[C@H](C)O2)Oc2ccc(cc2Cl)[C@H]1O` [Vancomycin, Vancomycin Hydrochloride, reference compound], for which the MBC/MIC in the data set on B. subtilis 21332 turned out to be 2. This compound also returned an MBC against B. subtilis 21332 (Bacillus subtilis, ATCC21332) of 0.5 µg/mL. Besides, the MIC against B. subtilis 21332 (Bacillus subtilis, ATCC21332, 24 h) was 0.25 µg/mL; in the data set on MRSA LAC [4] (read-out: MIC in the presence of calcium chloride), 0.75 µg/mL; with MRSA LAC [4] (read-out: MIC in the presence of ferric chloride), 0.625 to 1.25 µg/mL; in the data set with MRSA LAC [4] (read-out: MIC in the presence of sodium chloride), 1 to 2 µg/mL; in the data set on MRSA LAC [4] (read-out: MIC under normal physiological conditions), 1 µg/mL; in the data set on MRSA USA300 [5] (read-out: MIC in the absence of LTA), 2 µg/mL. For the same compound, the MIC with MRSA USA300 [5] (read-out: MIC in the presence of LTA) is 2 µg/mL. In addition, the “DisC3(5) fluorescence versus control” value with MRSA USA300 [2] (controls at 100 µg/mL) is given as “no significant difference”. For the same compound, the “Lethal rate (LR), log10 reduction” value in the data set with MRSA LAC [3] (1 × MIC ([R4W4] 4 µg/mL, vancomycin 1 µg/mL)) was determined as 1.02; in the data set with MRSA LAC [3] (2 × MIC), 1.99; in the data set with MRSA LAC [3] (4 × MIC) it was 2.37. Moreover, the “% Reduction in viable bacteria” value with MRSA LAC [3] (1 × MIC, 100 × (1 − 10^−LR)) was 90.50%; with MRSA LAC [3] (1 × MIC, 100 × (1 − 10^−LR), listed as vancomycin) it was above 90%; in the data set on MRSA LAC [3] (2 × MIC) it was 98.98%; in the data set on MRSA LAC [3] (4 × MIC), 99.58%. Also, the “viable bacteria at 26 h” value in the data set with MRSA LAC [3] (4 × MIC) is given as “no viable bacteria were recovered at 26 h”. The “% reduction in viable bacteria over 1 × MIC, 2 × MIC and 4 × MIC” value with MRSA LAC [3] is listed as 90.50–99.58%.
